Source: US5449612A, “Process for identifying candida by means of chromogenic substances” (Serbio, priority 1990, dated 1995)
Like-named read-outs stand apart in the source and are kept apart here. Non-standard residues stand in square brackets, D forms with d. Residues, ends and D or L forms follow the SMILES beside them. *: point of attachment. Hyp = O=C(O)[C@@H]1C[C@@H](O)CN1; pNA = O=[N+]([O-])c1ccc(N*)cc1; Phg = N[C@H](C(=O)O)c1ccccc1; Pip = O=C(O)[C@@H]1CCCCN1; Boc = CC(C)(C)OC(=O)*

Columns and labels:
[1] = tested on: Candida albicans; assay: Tests on substrates against Candida albicans, colour reading on buffered gelose; format: cell-based; conditions: Table I; medium pH 6.0, YNB, glucose, agar, gentamycin; coloration or fluorescence
[2] = tested on: Candida guillermondii; assay: Tests on substrates against Candida guillermondii; set-up: Reading at 24 h: key to the marks not given beside the values; conditions: for Reading at 24 h: Table V
[3] = tested on: Candida krusei; assay: Tests on substrates against Candida krusei, colour reading on buffered gelose; as to Reading at 24 h: key: -: none; +: weak; ++: moderate; +++: intense; ++++: very intense; format: cell-based; set-up: key to Specificity: interference with C. krusei: (a): interference with C. albicans (++++); (b): interference with C. krusei (++); (c): interference with C. tropicalis (++); conditions: for Reading at 24 h: Table IV, medium pH 6.0
[4] = tested on: T. glabrata; assay: Tests on substrates against T. glabrata, colour reading on buffered gelose; as to T. GLABRATA reading at 24 h: key: -: none; +: weak; ++: moderate; +++: intense; ++++: very intense; format: cell-based, Torulopsis glabrata; set-up: T. GLABRATA reading at 48 h: key: -: none; +: weak; ++: moderate; +++: intense; ++++: very intense
[5] = tested on: Candida tropicalis; assay: Tests on substrates against Candida tropicalis, colour reading on buffered gelose; format: cell-based; set-up: C. TROPICALIS reading at 48 h: key to the marks not given beside the values; conditions: for C. TROPICALIS reading at 24 h: Table III, medium pH 6.0; for Reading at 24 h: Table II, medium pH 6.0, YNB, glucose, agar, gentamycin
[6] = tested on: C. krusei; assay: Diagnosis from isolated colonies on gelose 2/5; format: cell-based, Candida krusei
Experimental: According to the afore-mentioned best mode of carrying out the invention, a culture medium containing the following ingredients is prepared; it is called gelose 2 below and is buffered to pH 6.0.
According to the afore-mentioned best mode of carrying out the invention, a culture medium containing the following ingredients is prepared; it is called gelose 5 below and is buffered to pH 6.0.
Several isolated strains of C. albicans, C. tropicalis, C. krusei, C. guillermondii, C. pseudotropicalis, C. parapsilosis, C. zeylanoides, T. glabrata and Trichosporon cutaneum were inoculated and incubated on the media of Examples 1 to 5. […] Part of the results obtained has been collated in Table VI below, where the TTC column relates to results of tests undertaken separately on a standard gelose medium containing TTC.
Several isolated strains of C. albicans, C. tropicalis, C. krusei, C. guillermondii and T. glabrata were inoculated and incubated on the media of Example 2 [containing either the substrate N-Ac-β-D-galactosaminide-PNP of the prior art, or the substrates H-L-PropNA.AcOH (specific for C. albicans), EM-L-Phg-L-ArgpNA.AcOH (specific for T. glabrata) and H-Gly-L-Pro-L-Arg-pNA.2AcOH (specific for C. krusei)]and of Example 5 (containing the substrate H-L-Pro-pNA.AcOH).

[7] = tested on: T. glabrata; assay: Diagnosis from isolated colonies on gelose 2/5; format: cell-based, Torulopsis glabrata; also: key: -: none; +: weak; ++: moderate; +++: intense; ++++: very intense
[8] = tested on: C. tropicalis; assay: Diagnosis from isolated colonies on gelose 2/5; format: cell-based, Candida tropicalis
[9] = tested on: C. albicans; assay: Diagnosis from isolated colonies on gelose 2/5; format: cell-based, Candida albicans; also: key: -: none; +: weak; ++: moderate; +++: intense; ++++: very intense
[10] = Table VII, isolated colonies, 6 strains, gelose 2
[11] = Table VII, isolated colonies, 9 strains, gelose 2

In the case of `CC(C)(C)OC(=O)NCC(=O)N1CCC[C@H]1C(=O)N[C@@H](CCCNC(=N)N)C(=O)Nc1ccc([N+](=O)[O-])cc1` [Boc-Gly-L-Pro-L-Arg-pNA.AcOH] (Boc-Gly-Pro-Arg-pNA), the “Reading at 24 h” value [1] was “++”, the “Specificity: interference with C. guillermondii” value ([2]; Table I) was “(d)” and the “Reading at 24 h” value [3] was “-”. For the same compound, the “Specificity: interference with T. glabrata” value [4] was “(e) and (f)”, the “T. GLABRATA reading at 24 h” value ([4]; pH 6) was “+++” and the “Specificity: interference with C. tropicalis” value ([5]; Table I) was “(b)”. The “C. TROPICALIS reading at 24 h” value [5] was “+” and the “Specificity: interference with C. tropicalis” value ([5]; Table IV) was “(b)”.

With `CC(C)(C)OC(=O)N1C[C@H](O)C[C@H]1C(=O)N1CCC[C@H]1C(=O)N[C@@H](CCCNC(=N)N)C(=O)Nc1ccc([N+](=O)[O-])cc1` [Boc-L-4Hyp-L-Pro-L-Arg-pNA.AcOH] (Boc-[Hyp]-Pro-Arg-pNA) the “Reading at 24 h” value [1] was “++++” and the “Specificity: interference with C. tropicalis” value ([5]; Table I) was “(b)”.

In the case of `CC(C)C[C@H](NC(=O)OC(C)(C)C)C(=O)N[C@@H](CO)C(=O)N[C@H](C(=O)N[C@@H](CCCNC(=N)N)C(=O)Nc1ccc([N+](=O)[O-])cc1)[C@@H](C)O` [Boc-L-Leu-L-Ser-L-Thr-L-Arg-pNA.AcOH] (Boc-LSTR-pNA), the “Reading at 24 h” value [2] was “++++” and the “Specificity: interference with C. tropicalis” value ([5]; Table V) was “(c)”.

With `N=C(N)NCCC[C@H](NC(=O)[C@@H]1CCCN1C(=O)CNC(=O)[C@H]1CCCN1)C(=O)Nc1ccc([N+](=O)[O-])cc1` [H-D-Pro-Gly-L-Pro-L-Arg-pNA.2AcOH] (H-[dP]GPR-pNA) the “T. GLABRATA reading at 24 h” value ([4]; pH 6) was “+” and the “C. TROPICALIS reading at 24 h” value [5] was “+”.

For `N=C(N)NCCC[C@H](NC(=O)[C@@H](NC(=O)[C@H]1CCCN1)c1ccccc1)C(=O)Nc1ccc([N+](=O)[O-])cc1` [H-D-Pro-L-Phg-L-Arg-pNA.2AcOH] (H-[dP]-[Phg]-Arg-pNA), the “T. GLABRATA reading at 24 h” value ([4]; pH 6) was “-” and the “C. TROPICALIS reading at 24 h” value [5] was “++”.

For `N=C(N)NCCC[C@H](NC(=O)[C@@H]1CCCN1C(=O)CNC(=O)CN)C(=O)Nc1ccc([N+](=O)[O-])cc1` [H-Gly-Gly-L-Pro-L-Arg-pNA.2AcOH] (H-GGPR-pNA), the “Reading at 24 h” value [3] was “++”, the “T. GLABRATA reading at 24 h” value ([4]; pH 6) was “+” and the “C. TROPICALIS reading at 24 h” value [5] was “+”. For the same compound, the “Specificity: interference with C. tropicalis” value ([5]; Table IV) was “(d)”.

With `N=C(N)NCCC[C@H](NC(=O)[C@@H]1CCCCN1C(=O)CN)C(=O)Nc1ccc([N+](=O)[O-])cc1` [H-Gly-L-Pip-L-Arg-pNA.2AcOH] (H-Gly-[Pip]-Arg-pNA) the “Reading at 24 h” value [1] was “++” and the “Specificity: interference with C. tropicalis” value ([5]; Table I) was “(b)”.

With `N=C(N)NCCC[C@H](NC(=O)[C@@H]1CCCN1C(=O)CN)C(=O)Nc1ccc([N+](=O)[O-])cc1` [H-Gly-L-Pro-L-Arg-pNA.2AcOH] (H-Gly-Pro-Arg-pNA) the “Reading at 24 h” value [1] was “++++”, the “Reading at t = 24 h” value [6] was “+++” and the “Reading at t = 24 h” value [7] was “-”. For the same compound, the “Specificity: interference with C. krusei” value ([3]; Table I) was “(c)”, the “Reading at 24 h” value [3] was “++++” and the “Reading at t = 24 h” value [8] was “++”. The “T. GLABRATA reading at 24 h” value ([4]; pH 6) was “-”, the “Reading at t = 24 h” value [9] was “-” and the “Specificity: interference with C. tropicalis” value ([5]; Table I) was “(b)”. For the same compound, the “Reading at 24 h” value [5] was “++++”, the “C. TROPICALIS reading at 24 h” value [5] was “++++” and the “Specificity: interference with C. tropicalis” value ([5]; Table IV) was “(a)”.

`NCC(=O)N1CCC[C@H]1C(=O)Nc1ccc([N+](=O)[O-])cc1` [H-Gly-L-Pro-pNA.AcOH] (H-Gly-Pro-pNA) was tested, and the “hydrolysis by the strains of C. tropicalis” value [8] was “hydrolyzed”.

In the case of `N=C(N)NCCC[C@H](NC(=O)[C@@H]1CCCN1C(=O)[C@@H]1C[C@@H](O)CN1)C(=O)Nc1ccc([N+](=O)[O-])cc1` [H-L-4Hyp-L-Pro-L-Arg-pNA.2AcOH] (H-[Hyp]-Pro-Arg-pNA), the “Reading at 24 h” value [1] was “++++” and the “Specificity: interference with C. tropicalis” value ([5]; Table I) was “(b)”.

For `N=C(N)NCCC[C@H](NC(=O)[C@@H]1CCCN1C(=O)[C@@H]1CCCN1)C(=O)Nc1ccc([N+](=O)[O-])cc1` [H-L-Pro-L-Pro-L-Arg-pNA.2AcOH] (H-Pro-Pro-Arg-pNA), the “Reading at 24 h” value [1] was “+++”, the “Reading at 24 h” value [3] was “-” and the “Specificity: interference with C. tropicalis” value ([5]; Table I) was “(b)”. The “Reading at 24 h” value [5] was “++++” and the “Specificity: interference with C. tropicalis” value ([5]; Table IV) was “(a)”.

For Boc-L-Hyp-L-Pro-L-Arg-pNA.AcOH, the “T. GLABRATA reading at 24 h” value ([4]; Table III, medium pH 6.0) was “-” and the “C. TROPICALIS reading at 24 h” value [5] was “+”.

In the case of BzNH-D-Ala-Gly-L-Arg-pNA.AcOH, the “T. GLABRATA reading at 24 h” value ([4]; Table III, medium pH 6.0) was “-” and the “C. TROPICALIS reading at 24 h” value [5] was “++”.

BzNH-L-Ala-Gly-L-Arg-pNA.AcOH was tested, and the “T. GLABRATA reading at 24 h” value ([4]; Table III, medium pH 6.0) was “-” and the “C. TROPICALIS reading at 24 h” value [5] was “+++”.

EM-L-Hyp-L-Arg-pNA.AcOH was tested, and the “T. GLABRATA reading at 48 h” value ([4]; Table III footnotes) was “+++”, the “T. GLABRATA reading at 24 h” value ([4]; Table III, medium pH 6.0) was “-” and the “C. TROPICALIS reading at 48 h” value ([5]; Table III footnotes) was “+++”. The “C. TROPICALIS reading at 24 h” value [5] was “++”.

With EM-L-Phg-L-Arg-pNA.AcOH the “Reading at t = 24 h” value [6, 10] was “-”, the “Reading at t = 24 h” value [7, 11] was “+++” and the “hydrolysis by the strains of C. tropicalis” value ([8]; Example 7, isolated strains, gelose 2) was “hydrolyzed”. The “Reading at t = 24 h” value [8, 11] was “++”, the “T. GLABRATA reading at 24 h” value ([4]; Table III, medium pH 6.0) was “++++” and the “Reading at t = 24 h” value [9, 10] was “-”. For the same compound, the “C. TROPICALIS reading at 24 h” value [5] was “+++”.

H-L-ONC-L-Arg-pNA.AcOH was tested, and the “Specificity: interference with C. guillermondii” value ([2]; Table IV) was “(e)”, the “Reading at 24 h” value [2] was “++++” and the “Reading at 24 h” value [3] was “++”. The “Specificity: interference with C. krusei” value ([3]; Table V) was “(b)”.

With MM-L-Phg-L-Arg-pNA.AcOH the “T. GLABRATA reading at 24 h” value ([4]; Table III, medium pH 6.0) was “+ +++” and the “C. TROPICALIS reading at 24 h” value [5] was “++”.
